The values that follow come from patent publication US12649748B2, “Wee1 inhibitor and use thereof” (JIANGSU TASLY DIYI PHARMACEUTICAL CO., LTD., priority 2021, dated 2026).

≈ marks a conversion by molar mass, not a printed value.

The nature of data set [1]: Metabolic stability of liver microsomes in vitro (mouse). The format is in vitro ADME. The conditions noted are these: read-out: Mouse T1/2/min. On the procedure: Microsomes were taken out from the −80° C. refrigerator, rapidly melted in a 37° C. water bath and placed on ice until ready to use. The test article was diluted with DMSO to prepare a 10 mM stock solution, and then diluted with acetonitrile to a 0.5 mM secondary stock solution. The microsomes were diluted to 0.75 mg/ml using Buffer C; the secondary stock solution was then added to a final concentration of 1.5 μM of compound as working solution, based on n=2, 5 time points, 350 μL of each compound was prepared and placed on ice prior to use. NADPH was diluted with Buffer C to a working solution of 6 mM for the starter solution. An acetonitrile solution containing an internal standard was prepared as the precipitant, and Verapamil-HCl was chosen as the internal standard at a concentration of 4 ng/ml.
A round-bottom well plate was taken, noted as the reaction plate, and the prepared working solution for each compound was dispensed into the well plate according to the number of replicates and time points (0 h samples are also added to the reaction plate), 30 μL/well; the plate was incubated at 37° C. for 10 min. A separate plate with pointed bottom wells, noted as a precipitation plate, was added with 135 μL precipitant per well; 0 h samples were transferred to the plate after 10 min incubation and 15 μL of starter solution was added; the plate was placed on ice before centrifugation.
The diluted starter solution was added in sufficient quantity to the dispensing plate to facilitate the multichannel pipette aspiration operation.
The reaction was carried out on a warm incubation shaker and 15 μL of starter solution/sample is added to the plate using a multichannel pipette. The reaction was mixed with a slight shake to initiate the reaction, which was accurately timed and recorded using a timer;
After the reaction time had elapsed, all the solution in the plate was aspirated using the multichannel pipette and added to the precipitation plate to terminate the reaction at that point in time. After all reactions had been terminated, the plates were shaken for ten minutes on a plate shaker at 600 rpm to precipitate the protein. The plate was centrifuged at 4° C. for 15 minutes at maximum rpm. 80 μL of supernatant was taken, 320 μL of pure water was added and mixed for LC-MS analysis.
On the technique in general: Microsomes from liver hold many membrane-bound enzymes, among them those of drug oxidation.

A further data set is described as follows: Solubility test. The format is physicochemical. The conditions noted are these: aqueous buffer, thermodynamic from solid; buffer solution, shaken at constant temperature 24 h. On the procedure:
The compound was placed in a buffer solution and shaken at constant temperature for 24 h. […] Chromatographic conditions: C18 column, mobile phase A: 0.02 M potassium dihydrogen phosphate:acetonitrile=90:10, mobile phase B: acetonitrile; V: 1.0 ml/min, T: 35° C., λ: 210 nm.

Data set [2] is described as follows: Membrane permeability study (Caco-2). In kind it is in vitro ADME. The conditions noted are these: human; for Papp A→B at 90 min, 10 µM / Papp B→A at 90 min, 10 µM: pH 7.4, Caco-2, 10 μM; for Papp A→B at 90 min, 10 µM: A to B; for Papp B→A at 90 min, 10 µM: B to A; for efflux ratio at 90 min, 10 µM: Caco-2, pH 7.4, read-out: Efflux Ration. On the procedure: Caco-2 cells were purchased from the […] (Rockville, MD). The cell culture medium was modified Eagle's medium (MEM) containing 10% inactivated fetal bovine serum and 1% non-essential amino acids. Cells were inoculated on polycarbonate filter membranes (Cat no. 3396) and incubated at 37° C. in a 5% CO2 incubator.
The cells were incubated for 21-28 days after inoculation for transport experiments and the apparent permeability (Papp) of Lucifer Yellow was used to characterize and verify the compactness of the cell monolayer. A stock solution of 10 mM was prepared by dissolving the compound in DMSO and diluted using Hanks Balanced Salt Solution (HBSS, Invitrogen, Cat #14025-092) containing 25 mM HEPES (pH 7.4) to obtain the working solution. A 10 μM working solution of the compound to be tested was added to the apical side and basolateral side of Caco-2 and incubated at 37° C. for 90 min. After the incubation, dilute the samples on the apical side and basolateral side, and the concentrations of compounds on the apical and basolateral sides were detected by LC-MS/MS, and the concentrations of the compounds were quantified by standard curve.
In general terms: Passage across Caco-2 layers is used to estimate intestinal permeability.

A further data set addresses T1, CYP1A2 (Homo sapiens, UniProt P05177).
T1 sequence (P05177 1-516): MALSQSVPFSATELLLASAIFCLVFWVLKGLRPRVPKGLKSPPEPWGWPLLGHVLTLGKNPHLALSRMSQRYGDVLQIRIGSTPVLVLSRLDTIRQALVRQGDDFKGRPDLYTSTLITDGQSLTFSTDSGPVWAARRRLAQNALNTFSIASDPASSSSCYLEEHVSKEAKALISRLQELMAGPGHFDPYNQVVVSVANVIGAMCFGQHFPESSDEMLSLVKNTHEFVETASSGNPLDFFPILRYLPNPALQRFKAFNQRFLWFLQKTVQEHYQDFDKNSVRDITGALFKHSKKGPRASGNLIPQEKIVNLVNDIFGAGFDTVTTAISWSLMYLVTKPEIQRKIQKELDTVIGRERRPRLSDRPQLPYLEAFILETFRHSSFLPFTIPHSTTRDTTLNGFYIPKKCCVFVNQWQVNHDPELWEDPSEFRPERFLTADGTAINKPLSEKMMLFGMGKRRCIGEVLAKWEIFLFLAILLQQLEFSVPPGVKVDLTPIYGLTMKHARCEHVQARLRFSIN
Kind of data set: Inhibition of cytochrome P450, CYP1A2. The conditions noted are these: CYP1A2 enzyme, pH 7.4, probe EOMCC, read-out: CYP inhibition/% 1A2; for inhibition at 30 min, 1 µM: compound concentration 1 μM; for inhibition at 30 min, 10 µM: compound concentration 10 μM. The format is in vitro ADME. On the procedure:
(§1) Enzymatic experiments were performed to quantify the inhibition of CYP450 enzyme activity of each isoform of CYP450 by small molecule inhibitors through fluorescence generated by the oxidation of the substrate by cytochrome P450. […] The Solution B composition used for the experiment was: 40 U/mL G6PDH (Sigma-aldrich, Cat #G6378). The substrate mix was 0.05× Solution A, 0.01× Solution B, 50 mM Potassium Phosphate, 0.01 mM BOMCC/0.01 mM EOMCC/0.001 mM DBOMF. […] The data were analyzed and processed using GraphPad Prism 6 software to obtain IC50 values.

Another data set has as its target T2, CYP2C8 (Homo sapiens, UniProt P10632).
T2 sequence (P10632 1-490): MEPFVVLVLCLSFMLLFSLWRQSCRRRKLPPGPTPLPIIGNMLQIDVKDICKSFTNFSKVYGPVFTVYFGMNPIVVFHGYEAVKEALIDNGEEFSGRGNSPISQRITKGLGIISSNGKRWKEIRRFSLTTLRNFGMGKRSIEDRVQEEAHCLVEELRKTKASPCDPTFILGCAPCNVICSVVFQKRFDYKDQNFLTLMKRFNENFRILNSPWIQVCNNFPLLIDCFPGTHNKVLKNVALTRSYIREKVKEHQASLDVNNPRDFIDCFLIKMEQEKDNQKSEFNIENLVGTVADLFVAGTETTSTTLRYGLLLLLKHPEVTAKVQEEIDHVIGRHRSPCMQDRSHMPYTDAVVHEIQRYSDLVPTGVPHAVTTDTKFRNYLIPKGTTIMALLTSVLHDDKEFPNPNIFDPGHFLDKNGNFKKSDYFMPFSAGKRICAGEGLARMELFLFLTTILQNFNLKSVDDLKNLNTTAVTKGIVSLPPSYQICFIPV
Kind of data set: Inhibition of cytochrome P450, CYP2C8. In kind it is in vitro ADME. The conditions noted are these: CYP2C8 enzyme, pH 7.4, probe DBOMF, read-out: CYP inhibition/% 2C8; for inhibition at 30 min, 1 µM: compound concentration 1 μM; for inhibition at 30 min, 10 µM: compound concentration 10 μM. On the procedure:
as §1

The term solubility denotes how much of the substance goes into solution per volume. The term Papp A→B denotes the apparent permeability from the apical to the basolateral side of a cell layer. Lower therefore signals slow passage. As a reminder, the Papp B→A is how fast a substance crosses the layer from the basolateral side. As for `C=CCn1c(=O)c2cnc(Nc3ccc(N4CCN(C)CC4)cc3)nc2n1-c1cccc(C(C)(C)O)n1` [AZD-1775, reference compound], the half-life at 1 µM in data set [1] was found to be 30.1 min. This compound registered a solubility at 24 h in the data set “Solubility test” of 30 µg/mL (≈ 59.9 µM). In addition, in data set [2], the Papp A→B at 90 min, 10 µM is 14.5 ×10⁻⁶ cm/s and the Papp B→A at 90 min, 10 µM turned out to be 35.3 ×10⁻⁶ cm/s.
On to `CN1CCN(c2ccc(Nc3ncc4cnn(-c5cccc(N=S(C)(C)=O)n5)c4n3)cc2)CC1` [Compound 1], for which, at CYP1A2, the inhibition at 30 min, 1 µM stood at 18.4% and the inhibition at 30 min, 10 µM came out at 16.3%. The half-life at 1 µM in data set [1] amounted to 60.3 min. The compound also had a solubility at 24 h in the data set “Solubility test” of 120 µg/mL (≈ 251 µM). Also, on CYP2C8, the inhibition at 30 min, 1 µM is -5.3% and the inhibition at 30 min, 10 µM amounted to 3.2%. For the same compound, in data set [2], the efflux ratio at 90 min, 10 µM came out at 4.67; the Papp A→B at 90 min, 10 µM amounted to 8.93 ×10⁻⁶ cm/s; the apparent permeability from basolateral to apical (Papp B→A) at 90 min, 10 µM was determined as 41.7 ×10⁻⁶ cm/s.
For `CN1CCN(c2ccc(Nc3ncc4cnn(-c5cccc(C(C)(C)O)n5)c4n3)cc2)CC1` [Compound 2], on CYP1A2, the inhibition at 30 min, 1 µM was 13.5% and the inhibition at 30 min, 10 µM was 14.2%. In addition, in data set [1], the half-life at 1 µM was found to be 15.6 min. Moreover, on CYP2C8, the inhibition at 30 min, 1 µM is -11% and the inhibition at 30 min, 10 µM was 0.24%.
As for `CS(C)(=O)=Nc1cccc(-n2ncc3cnc(Nc4ccc(N5CCOCC5)cc4)nc32)n1` [Compound 6], the figures for the inhibition at 30 min, 1 µM on CYP1A2 and on CYP2C8 were 15.5% and -14.3%, respectively. Besides, the inhibition at 30 min, 10 µM turned out to be 23.3% at CYP1A2 and 20.9% at CYP2C8.
`Cc1cc(Nc2ncc3cnn(-c4cccc(N=S(C)(C)=O)n4)c3n2)ccc1N1CCC(N(C)C)CC1` [Compound 14]: in data set [1], the half-life at 1 µM was 67.3 min. Also, in data set [2], the efflux ratio at 90 min, 10 µM amounted to 3.54; the Papp A→B at 90 min, 10 µM is 5.86 ×10⁻⁶ cm/s; the Papp B→A at 90 min, 10 µM stood at 20.8 ×10⁻⁶ cm/s.
For `Cc1cc(Nc2ncc3cnn(-c4cccc(N=S(C)(C)=O)n4)c3n2)ccc1N1CCN(C)CC1` [Compound 16], the half-life at 1 µM in data set [1] was determined as 8.9 min. Further, the concentration in solution in “Solubility test” (solubility at 24 h) was 350 µg/mL (≈ 712 µM). Besides, in data set [2], the efflux ratio at 90 min, 10 µM was found to be 2.51; the Papp A→B at 90 min, 10 µM is 8.07 ×10⁻⁶ cm/s; the Papp B→A at 90 min, 10 µM was found to be 20.3 ×10⁻⁶ cm/s.
